# EP4741395A1, “NOVEL COMPOUND SENSITIVE TO NITROGEN MONOXIDE AND PHARMACEUTICAL COMPOSITION COMPRISING SAME” (Omniamed Co. Ltd, priority 2023, dated 2025)
# Entries after “also recorded” stand apart in the source; their conditions may differ.
# How the values were obtained:
# Raw 264.7 cell line = experiment: NO scavenging activity in LPS-treated immune cells (Griess reagent); assay type: cell-based; conditions: Mus musculus, RAW264.7, Raw 264.7, LPS 500 ng/mL, 24 hours, read-out: NO Scavenging Activity (%) (Mean±SD)
# IL-6 (Interleukin-6) = experiment: Inhibition of inflammatory cytokine secretion in LPS-treated immune cells (IL-6 sandwich ELISA); assay type: cell-based; conditions: Mus musculus, RAW264.7, Raw 264.7, LPS 500 ng/mL, 24 hours, read-out: IL-6 Reduction Activity (%) (Mean±SD)
# Experimental: Raw 264.7 cell line was seeded in a 48-well plate at a density of 8×10^4 cells/well, and cultured at 37°C in a DMEM medium including 10% FBS, 100 U/mL of penicillin and 100 µg/mL of streptomycin.
# The medium was cultured overnight, and then replaced with a fresh medium including 10 µM of the pharmaceutical composition sensitive to nitrogen monoxide including the compound of each of Examples 1 and 11 to 13 and 500 ng/mL of LPS, and the fresh medium was cultured again for another 24 hours.
# Lastly, the supernatant was collected, and then the level of IL-6 (Interleukin-6) expression was analyzed using a Sandwich enzyme-linked immunosorbent assay (ELISA). Specifically, a standard solution and 50 µL of the diluted supernatant were introduced to each well of a well plate coated with an antibody specific to IL-6, and after binding IL-6 to the immobilized antibody, the well was washed with a washing buffer, followed by a reaction with HRP as a secondary antibody for 30 minutes at room temperature. The well was washed three times with a washing buffer, then color was developed using TMB (3,3', 5,5'-tetramethyl benzidine) as a substrate, and the reaction was stopped using 1 M sulfuric acid to measure the degree of color development at an absorbance of 450 nm.
# IFN-γ = IFN-γ reduction activity in Concanavalin A-treated splenocytes (quantitative ELISA); assay type: cell-based, C57BL/6 mouse; conditions: Mus musculus, Splenocyte, Concanavalin A 5 µg/mL, 72 hours, read-out: IFN-γ Reduction Activity (%) (Mean±SD)
# Outline: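 Splenocytes from 8-week-old C57BL/6 mice at 5×10^6 cells/mL in RPMI 1640 with 10% FBS, stimulated with Concanavalin A (5 µg/mL) plus compound added concentration-dependently. Supernatant IFN-γ measured by quantitative ELISA after 72 h.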
# [1] = Efficacy on DSS induced ulcerative colitis (disease activity index); assay type: in vivo, mice
# Experimental: In order to establish an ulcerative colitis model, 2.5% DSS powder was mixed with drinking water and provided ad libitum. The DSS powder-containing drinking water was supplied for 5 to 6 days of disease induction period, and after that, normal drinking water was supplied.
# The administered compounds of Table 21 were administered orally once daily. Hematochezia, diarrhea and body weight loss were scored according to the criteria shown in the following Table 22, and the scores were summed to calculate a disease activity index (DAI), which is shown in FIG. 4.
# Efficacy of Compound (4) on ulcerative colitis was verified in the same manner as in Experimental Example 10-1, except that Compound (4) was used instead of Compound (1), and DSS was administered until day 5, and the drug was administered from day 6.
# [2] = Efficacy on collagen-induced rheumatoid arthritis (arthritis score); assay type: in vivo, DBA/1 male mice
# Experimental: (§1) The experimental animals were 30 8-week-old DBA/1 male mice. […] The number of normal mice was set to five in order to minimize the number of experimental animals. The group administered with Compound (1) consisted of 5 to 6 mice, a minimal number required to obtain statistically meaningful data given the limited amount of the drug.
# (§2) In order to establish a rheumatoid arthritis model, 100 µL of a mixture solution in which 2 mg/mL of chick type II collagen and 1 mg/mL of Complete Freund's Adjuvant (CFA) were mixed in a ratio of 1:1 was administered intradermally to each of the mouse tails. After 19 days, 100 µL of an emulsion in which 2 mg/mL of chick type II collagen and Incomplete Freund's Adjuvant (IFA) were mixed in a ratio of 1:1 was administered intradermally to each of the mouse tails.
# The test substances of Table 23 were administered orally every day according to the drug dosing period and dosing frequency. As for the rheumatoid arthritis score (arthritis score), the score of each of the four paws was quantified according to the criteria shown in the following Table 24, and the individual scores were summed to generate the final score.
# as §1, with “31” for “30”, “(11)” for “(1)”, “5” for “5 to 6”, “drug. Each of the remaining groups consisted of 7 mice, with two extra mice added to account for experimental error.” for “drug.”
# as §2
# Oral administration was conducted daily according to the dose, dosing frequency and dosing period of Table 25. Based on the criteria shown in Table 24, rheumatoid arthritis score for the four paws were quantified and summed to generate the score.
smiles,measurement,setting,value
"C[C@@H]1CCN(C(=O)CC#N)C[C@@H]1N(C)c1ncnc2c1ccn2C(=O)Nc1ccccc1N [Example 1, N-(2-aminophenyl)-4-(((3R,4R)-1-(2-cyanoacetyl)-4-methylpiperidin-3-yl) (methyl)amino)-7H-pyrrolo[2,3-d]pyrimidine-7-carboxamide]",activity at 10 µM,Raw 264.7 cell line,77.4 ± 0.52%
same,activity at 10 µM,IL-6 (Interleukin-6),93.6 ± 0.6%
same,activity at 10 µM,IFN-γ,91.5 ± 1.37%
same,efficacy on disease activity index (DAI),"[1]; 25 mg/kg oral once daily from day 3, day 7 of the test, p<0.01, FIG. 4",statistically significant efficacy was observed
same,efficacy in alleviating ulcerative colitis compared to tofacitinib,"[1]; 25 mg/kg oral once daily, FIGS. 4 and 5",comparable to that of tofacitinib on average; also recorded: comparable or more superior efficacy
same,alleviation of rheumatoid arthritis compared with tofacitinib,"[2]; 30 mg/kg and 60 mg/kg oral once daily, entire period of the experiment",comparable to or higher than 40 mg/kg of tofacitinib
same,average rheumatoid arthritis score compared with tofacitinib,"[2]; 30 mg/kg oral once daily, FIG. 6",comparable to that of the group administered with 40 mg/kg of tofacitinib
same,rheumatoid arthritis-alleviating efficacy (arthritis score),"[2]; 30 mg/kg oral once daily, day 42 to day 47 after disease induction, FIG. 6",no statistically significant alleviating efficacy was observed
same,rheumatoid arthritis-alleviating efficacy (arthritis score),"[2]; 30 mg/kg oral once daily, day 49 to the end of the experiment (p<0.05), FIG. 6",statistically significant alleviating efficacy was observed again
same,rheumatoid arthritis-alleviating efficacy (arthritis score),"[2]; 30 mg/kg oral once daily, from day 35 after disease induction (p<0.05), FIG. 6",Alleviating efficacy was observed
same,rheumatoid arthritis-alleviating efficacy compared with tofacitinib,"[2]; 60 mg/kg oral once daily, from day 33 after disease induction (p<0.01) to the end, FIG. 6",comparable to or higher than that of the group administered with 40 mg/kg of tofacitinib
